Measurements taken from patent US20230049917A1, “Pharmaceutical Composition of CASR Modulators and Methods and Uses Thereof” (Lupin Limited, priority 2019, published 2023).
Several values for one entry are separate records, joined by “and”; a condition that tells them apart may be missing. Equal values may be shown once.

Tests used:
cytochrome P450 2D6 = cytochrome P450 2D6 (Homo sapiens, UniProt P10635); assay: Cytochrome P450 2D6 liability; type: in vitro ADME
[1] = Non-clinical studies: hypocalcaemia at efficacious doses; type: in vivo
iPTH = assay: Phase 2 Main Study: iPTH change from baseline in CKD patients with SHPT; type: in vivo, human; details: for iPTH levels reduced from baseline (FIG. 1) / mean percentage suppression in iPTH from baseline, peak, Day 90, 2 to 4 hours post-dose (exploratory analysis) / mean percentage suppression in iPTH from baseline at the end of 90 days / proportion of patients with ≥30% reduction in iPTH from baseline at end of 90 days (responder rate): patients on dialysis
Description: A randomized, double-blind, placebo-controlled phase 2 clinical study was conducted to assess the efficacy, pharmacokinetics (PK), pharmacodynamics (PD) and safety of 2-methyl-5-((2R,4S)-2-((((R)-1-(naphthalen-1-yl)ethyl)amino)methyl) chroman yl)benzoic acid, hydrochloride (Compound 3), as a monotherapy in patients with CKD with secondary hyperparathyroidism (SHPT). The patients enrolled in the study were either on dialysis or not on dialysis. Patients could continue taking doses (whether stable dosing or otherwise) of calcium supplements, phosphate binders, vitamin D, vitamin D analogues or a combination thereof for the treatment of SHPT in combination with Compound 3. Patients can take at least one calcium supplement, phosphate binder, vitamin D, vitamin D analogue or a combination thereof concurrently or concomitantly with Compound 3. Dosing for such calcium supplements, phosphate binders, vitamin D, vitamin D analogues or a combination thereof for the treatment of SHPT can be individualized based on patient's iPTH levels, and/or can correlate with doses presently used for the treatment of SHPT.
This was a double-blind, randomized, placebo-controlled, multicenter study with an additional non-randomized open-label arm conducted in patients with secondary hyper-parathyroidism (SHPT) associated with CKD which was further stratified in 2 groups: on dialysis and not on dialysis. The iPTH levels of patients in the “on dialysis” group were in a range of 428.2 pg/ml to 1240.6 pg/ml (mean 857.76 pg/ml) while those in the “not on dialysis” group were in a range of 125.0 pg/ml to 654.7 pg/ml (mean 297.83 pg/ml).
Total 179 patients were enrolled in this study of which 108 patients were on dialysis and 71 were not on dialysis. Patients of on dialysis group were further randomized to 3 subgroups administering 10 mg Compound 3, 25 mg Compound 3, or placebo once daily in a double blind fashion enrolling 35 patients, 36 patients and 18 patients, respectively, and an additional non-randomized open label arm enrolling 19 patients receiving 20 mg Compound 3, twice daily. A total of 98 patients completed the study. 10 patients discontinued the study. None of the patients discontinued the study due to adverse drug reactions.
Patients on not on dialysis group were randomized to two treatment subgroups administering 10 mg Compound 3, or placebo once daily in a double blind fashion enrolling 37 and 18 patients, respectively, and an additional non-randomized open label arm enrolling 16 patients receiving 5 mg Compound 3, twice daily. 4 patients discontinued the study. None of the patients discontinued the study due to adverse drug reactions.
The efficacy, PK, PD and safety of Compound 3, as a monotherapy in patients with CKD with secondary hyperparathyroidism (SHPT), were assessed. One objective of the study was to evaluate the mean percentage change in iPTH from baseline at the end of 90 days. Yet another objective of the study was to determine the proportion of patients with >30% reduction in iPTH from baseline at the end of 90 days. Yet another objective of the study was to ensure safety of patients.
For efficacy assessments, the primary efficacy assessment included measurement of iPTH and the exploratory efficacy assessment included measurement of parathyroid gland size at scheduled time points. Blood samples for measurement of iPTH were collected during Day −30 to Day −1 (Screening Period); Day 1; Day 8+/−3 days; Day 15+/−3 days; Day 30+/−3 days; Day 60+/−3 days; and Day 90+/−3 days (EOT/Early Discontinuations). Two blood samples were collected during Screening Period and higher of these 2 values was considered as a baseline value. During treatment period of the Main Study, blood samples were collected on Day 30, Day 60, and Day 90. If the blood sample collected on Day 90 could not be analysed for any reason, the second blood sample had to be collected within 3 days of end of treatment (EOT). […]

[2] = Pharmacokinetic analysis after oral administration of the formulation to rats; type: in vivo; details: male, Sprague Dawley, rat, in vivo, po, 5 mg/kg
Description: Male Sprague Dawley Rats (weight 225±25 gm; aged 8 to 10 weeks) were administered orally with the formulation. Each of the tested compounds was dosed at 5 mg/kg at a dose volume of 1 mL/kg. Blood samples were collected at time points 0.25, 0.5, 1, 2, 4, 6, 8 and 24 hours and analyzed the plasma concentrations of administered compound and calculated PK parameters. The plasma concentrations of the tested compounds were measured by liquid chromatography with tandem mass spectrometry (LCMS-MS) using […] extraction method. The plasma concentration-time data was subjected to Non-Compartmental Analysis using Phoenix WinNonlin® (Version 5.3) software to assess the pharmacokinetic parameters. Peak plasma concentrations (Cmax) and time for the peak plasma concentrations (Tmax) were the observed values. The area under the concentration time curve (AUC) was calculated by linear trapezoidal rule.

[3] = patients not on dialysis, 10 mg QD

cytochrome P450 2D6, sequence (P10635 whole entry, species assumed): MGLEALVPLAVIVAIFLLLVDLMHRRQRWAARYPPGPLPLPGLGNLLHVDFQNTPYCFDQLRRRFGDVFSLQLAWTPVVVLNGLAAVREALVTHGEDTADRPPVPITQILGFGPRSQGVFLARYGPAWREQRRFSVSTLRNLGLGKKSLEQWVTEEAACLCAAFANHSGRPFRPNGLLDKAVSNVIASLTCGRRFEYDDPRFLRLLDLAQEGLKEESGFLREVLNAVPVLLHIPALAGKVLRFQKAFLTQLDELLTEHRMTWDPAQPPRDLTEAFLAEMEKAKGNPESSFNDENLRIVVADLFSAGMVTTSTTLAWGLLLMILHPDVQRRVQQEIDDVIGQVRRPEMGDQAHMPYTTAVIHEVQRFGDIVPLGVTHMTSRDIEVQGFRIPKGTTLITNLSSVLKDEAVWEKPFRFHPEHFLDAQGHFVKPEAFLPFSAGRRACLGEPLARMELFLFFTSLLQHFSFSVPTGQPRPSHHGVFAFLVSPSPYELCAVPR

Cc1ccc([C@@H]2C[C@H](CN[C@H](C)c3cccc4ccccc34)Oc3ccccc32)cc1C(=O)O.Cl [Compound 3, 2-methyl-5-((2R,4S)-2-((((R)-1-(naphthalen-1-yl)ethyl)amino)methyl)chroman-4-yl)benzoic acid hydrochloride]
cytochrome P450 2D6 liabilities (cytochrome P450 2D6): devoid
hypocalcaemia [1]: No hypocalcaemia
iPTH levels reduced from baseline (FIG. 2) (iPTH; patients not on dialysis, 5 mg BID): more than 30%
mean percentage suppression in iPTH from baseline at the end of 90 days (2 to 4 hours post-dose), exploratory analysis (iPTH; patients not on dialysis, 5 mg BID open label arm): −55.03%
iPTH levels reduced from baseline (FIG. 2) (iPTH; [3]): more than 30%
mean percentage suppression in iPTH from baseline at the end of 90 days (2 to 4 hours post-dose), exploratory analysis (iPTH; [3]): −48.07%
mean percentage suppression in iPTH versus Placebo at the end of Day 90 (iPTH; patients not on dialysis, 10 mg QD and 5 mg BID): No significant difference
difference in proportion of patients who achieved ≥30% reduction in iPTH from baseline at the end of 90 days versus Placebo (iPTH; patients not on dialysis, QD or BID dosing regimen, 10 mg per day): not significant
iPTH levels reduced from baseline (FIG. 1) (iPTH; 10 mg QD): 25.65%
mean percentage suppression in iPTH from baseline, peak, Day 90, 2 to 4 hours post-dose (exploratory analysis) (iPTH; 10 mg QD): −79.54%
mean percentage suppression in iPTH from baseline at the end of 90 days (iPTH; 10 mg QD, per protocol): −25.65%
iPTH levels reduced from baseline (FIG. 1) (iPTH; 20 mg BID): more than 30%
mean percentage suppression in iPTH from baseline at the end of 90 days (iPTH; 20 mg BID open label arm): −82.42%
mean percentage suppression in iPTH from baseline, peak, Day 90, 2 to 4 hours post-dose (exploratory analysis) (iPTH; 20 mg BID open label arm): −93.02%
proportion of patients with ≥30% reduction in iPTH from baseline at end of 90 days (responder rate) (iPTH; 20 mg BID, hydrochloride): 93% and ~90%
iPTH levels reduced from baseline (FIG. 1) (iPTH; 25 mg QD): more than 30%
mean percentage suppression in iPTH from baseline, peak, Day 90, 2 to 4 hours post-dose (exploratory analysis) (iPTH; 25 mg QD): −85.79%
proportion of patients with ≥30% reduction in iPTH from baseline at end of 90 days (responder rate) (iPTH; 25 mg QD): around 80%
mean percentage suppression in iPTH from baseline at the end of 90 days (iPTH; 25 mg QD, per protocol): −56.65%
AUC(0-t) [2]: 15 ± 4 µM·h
Cmax [2]: 3.4 ± 1 µM
Tmax [2]: 0.5 to 2 h
